“Also recorded” adds a separate entry of the source.
Key:
[1] = system: Human umbilical vein endothelial cells; test: Cellular uptake of B-4F in endothelial cells; type: cell-based; details: B-4F 10 and 50 µg/ml; vs unlabeled 4F; 4 hours (method), 3 hours (Figure 6); confocal
Experimental: Human umbilical vein endothelial cells (EC; Lonza, Walkersville, MD) were incubated in EGM complete media containing 4F or B-4F (10 and 50 µg/ml) for 4 hours. The EC cultures were washed with PBS, fixed in PBS containing 1% paraformaldehyde, and permeabilized with PBS containing 0.5% Triton-X. The permeabilized sections were incubated with fluorescein-conjugated streptavidin (1 µg/ml) for 30 minutes followed by 3 PBS washes. The fixed and fluorescently labeled slides were mounted in aqueous mounting media and sections inspected and analyzed by confocal microscopy.

[2] = target: T1, IRF5 (Homo sapiens, UniProt Q13568); test: B-4F pulldown assay from EC cytosolic fractions spiked with recombinant IRF5; type: binding; details: 3 hours at 4°C, SA agarose beads overnight at 4°C; immunoblot
T1 construct: purchased GenScript USA Inc
T1 sequence (Q13568 1-498): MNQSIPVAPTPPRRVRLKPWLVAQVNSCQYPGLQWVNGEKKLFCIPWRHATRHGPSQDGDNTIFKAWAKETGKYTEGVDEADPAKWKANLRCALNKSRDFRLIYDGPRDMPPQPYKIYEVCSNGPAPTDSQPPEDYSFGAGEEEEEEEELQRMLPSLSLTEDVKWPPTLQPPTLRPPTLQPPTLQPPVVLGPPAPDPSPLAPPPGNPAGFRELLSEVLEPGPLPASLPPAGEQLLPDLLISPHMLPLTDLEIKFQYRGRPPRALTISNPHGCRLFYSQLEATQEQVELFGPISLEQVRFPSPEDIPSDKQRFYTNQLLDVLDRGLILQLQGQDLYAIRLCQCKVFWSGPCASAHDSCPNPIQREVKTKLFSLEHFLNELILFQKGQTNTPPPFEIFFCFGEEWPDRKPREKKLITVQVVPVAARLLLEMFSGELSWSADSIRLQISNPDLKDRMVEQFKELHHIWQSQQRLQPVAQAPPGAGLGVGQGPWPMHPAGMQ
Experimental: B-4F Pulldown Assays: To determine whether 4F interacts with IRF5 in the presence of cystosol proteins, we performed 4F pulldown assays on EC cytosolic fractions spiked with recombinant IRF5. Briefly, cytosolic EC fractions were precleared with SA agarose beads (Cat#15942-050, Invitrogen) for 30 minutes at 4°C. IRF5 interactions were enhanced by adding recombinant IRF5 (2% wt/vol, Genscript USA Inc.) to the endothelial cytosolic fractions. 4F and B-4F were added to the cytosolic fractions and incubated for 3 hours at 4°C. SA agarose beads were added and the samples mixed end-over-end overnight at 4°C. The following day the SA agarose beads were isolated by centrifugation. The proteins associated with B-4F were released from the beads with Laemmli buffer and separated by SDS-PAGE (4–15%) as above. IRF5 levels in the pulldown samples were determined by autoradiography of immunoblots as above.

[3] = system: Tsk−/+ mice; details: 1 mg/kg/d, 6–8 weeks; cited from earlier work
Source text: One of the reasons that we felt 4F decreased inflammation by a mechanism(s) other than those mediated by HDL function, was the extreme differences in the histopathology of the hearts from untreated and 4F treated Tsk^−/+ mice. Untreated Tsk^−/+ hearts contained much higher levels of oxidized phospholipids, and autoantibodies against oxidized lipids than control hearts. In addition, untreated Tsk^−/+ hearts were also more fibrotic and expressed more angiostatin than control hearts, which likely contributed to the notable losses in angiogenic potential in the hearts of these mice. Wh ...

[4] = system: TNFα, Il-6, and Il-1; details: cited from earlier work
Source text: The purpose of this study was to investigate an alternative mechanism for 4F decreasing myocardial inflammation in Tsk^−/+mice. While our previous report focused on 4F’s ability to decrease inflammation by improving HDL function, the current study determines the effects of 4F on IRF5. We chose to investigate this potential mechanism for two important reasons. […] These inflammatory mediators are all gene products of IRF5 [9], [29]. Second, genetic links between IRF5 and SSc have been ide ...

[5] = system: proinflammatory HDL; details: cited from earlier work
Source text: Scleroderma is an autoimmune disease that is characterized by marked increases in fibrosis of the skin and internal organs in conjunction with enhanced apoptosis. The tight skin (Tsk^−/+) mouse is a murine model of systemic scleroderma that replicates many of the features observed in patients suffering from this disease.

[6] = cited from earlier work
Source text: (§1) Although there is much support for the idea that 4F inhibits atherosclerosis by improving HDL function, the mechanism by which 4F decreases inflammation has not been identified completely. […] During the course of our studies for our report, [3], we found the anti-inflammatory effects of 4F on the Tsk^−/+ mice to be so profound that it was ...

[7] = system: HDL; details: proposed mechanism; cited from earlier work
Source text: as §1

Ac-DWFKAFYDKVAEKFKEAF-NH2 [4F]
uptake into EC (in words) [1]: enters EC in a concentration-dependent fashion
association with IRF5 in presence of EC cytosolic proteins (in words) [2]: strong enough to pull down IRF5 from a mixture of endothelial cell cytosolic proteins; also recorded: this interaction exists even in the presence of EC cytosolic proteins
oxidized phospholipids and autoantibodies against oxidized phospholipids in hearts [3]: essentially eliminated oxidized phospholipids, and autoantibodies against oxidized phospholipids from the hearts
expression of TNFα, Il-6, and Il-1 [4]: decreases expression of TNFα, Il-6, and Il-1
proinflammatory HDL levels [5]: decrease proinflammatory HDL levels
affinity for oxidized versus native lipids [6]: greater affinity for oxidized rather than native lipids
preβ HDL formation and HDL-dependent cholesterol efflux [7]: formation of preβ HDL with improved HDL-dependent cholesterol efflux
reverse cholesterol transport [7]: improvements in reverse cholesterol transport

Reference: article PMC3522636, “4F Decreases IRF5 Expression and Activation in Hearts of Tight Skin Mice” (PLoS ONE, 2012)
